Measured values reported in patent publication US9393329B2, “N-alkoxyamide conjugates as imaging agents” (Lantheus Medical Imaging, Inc., priority 2009, dated 2016).

Columns and labels:
[1] = tested on: aorta of apolipoprotein E (ApoE) knockout mouse; test: In-vivo ApoE mouse aorta uptake studies; conditions: ApoE knockout mice on high-fat diet, 0.3-0.4 mCi/kg bolus via tail vein; for aorta:blood / aorta:heart: 60 min, ratio; for aorta uptake (% ID/g): tissue harvested at 60 min
Description: Mice were fed a high-fat diet to accelerate plaque formation and compounds were tested in the mice between 35-42 weeks on diet. Test compounds were administered at 0.3-0.4 mCi/kg to anesthetized mice in a single, bolus injection via the tail vein. Blood samples were collected via the tail between 0-30 min post injection for pharmacokinetic analysis and mice were euthanized by CO2 at 60 min for tissue harvesting. The aorta was first flushed with saline through the left ventricle exiting via the femoral vein then removed from the heart to the renal bifurcation; additional biological samples were also collected (blood, muscle, liver, kidney, bile, urine, heart, femur, reproductive organ, lung, spleen and innominate artery). All samples were weighed and assayed for radioactivity; uptake is expressed as a percentage of injected dose per gram of tissue (% ID/g).

[2] = tested on: aorta bearing atherosclerotic plaque; test: Ex-vivo blood vessel binding assay; set-up: species or system New Zealand white rabbits; conditions: 153Gd-labeled compound 0.135 μCi in phosphate buffered saline, plaque-bearing rabbit aorta sections, 2 h at 37° C., washed; percentage of initial activity
Description: Aorta bearing atherosclerotic plaque was obtained from New Zealand white rabbits that were balloon stripped along the abdominal aorta and placed on a high fat diet (0.5% cholesterol) for 16-22 weeks. Vascular injury was produced with a 4-F Fogarty catheter along the abdominal aorta and right iliofemoral artery. This procedure generates an accelerated complex lesion development with a lipid rich core covered by a fibrous cap in rabbits. Harvested aorta sections (0.5 cm) were incubated with 0.135 μCi of ^153Gd-labeled compound diluted in phosphate buffered saline (450 μL) for 2 h at 37° C. The supernatant was removed and analyzed by HPLC to assay compound stability. The tissue section was then washed with phosphate buffered saline (3×10 mL), then resuspended (10 mL) and incubated at 37° C. an additional 1 h. The supernatant was then removed, the washing process repeated and the tissue finally counted on a gamma counter. The amount of compound bound to the tissue was determined as a percentage of the initial activity according to the following formula: […]

SMILES	aorta:blood [1]	aorta:heart [1]	aorta uptake (% ID/g) [1] [% ID/g]	% bound [2] [%]
CONC(=O)[C@@H](CCc1ccccc1)NCc1ccc(CNC(=O)CN2CCN(CC(=O)[O-])CCN(CC(=O)[O-])CCN(CC(=O)[O-])CC2)cc1.[153Gd+3] [Example 52]	2.0	9.2	6.1 ± 1.2	6.9
O=C([O-])CN1CCN(CC(=O)[O-])CCN(CC(=O)NCc2ccc(CN[C@H](CCc3ccccc3)C(=O)NOCc3ccccc3)cc2)CCN(CC(=O)[O-])CC1.[153Gd+3] [Example 53]	0.8	4.2	1.5 ± 0.1	–
CONC(=O)C(N)Cc1ccc(CNC(=O)CN2CCN(CC(=O)[O-])CCN(CC(=O)[O-])CCN(CC(=O)[O-])CC2)cc1.[153Gd+3] (stereo not shown) [Example 54]	1.2	5.3	2.5 ± 0.5	–
NC(Cc1ccc(CNC(=O)CN2CCN(CC(=O)[O-])CCN(CC(=O)[O-])CCN(CC(=O)[O-])CC2)cc1)C(=O)NOCc1ccccc1.[153Gd+3] (stereo not shown) [Example 55]	1.0	8.8	3.0 ± 2.3	–
